The target of test [1] is T1, CRF1 receptor (hCRF1α) (Homo sapiens, UniProt P34998).
T1 construct: host or cells: Cos7 cells, transient transfection (PEI), pcDNA3.0/3.1 vector
T1 sequence (P34998 24-415): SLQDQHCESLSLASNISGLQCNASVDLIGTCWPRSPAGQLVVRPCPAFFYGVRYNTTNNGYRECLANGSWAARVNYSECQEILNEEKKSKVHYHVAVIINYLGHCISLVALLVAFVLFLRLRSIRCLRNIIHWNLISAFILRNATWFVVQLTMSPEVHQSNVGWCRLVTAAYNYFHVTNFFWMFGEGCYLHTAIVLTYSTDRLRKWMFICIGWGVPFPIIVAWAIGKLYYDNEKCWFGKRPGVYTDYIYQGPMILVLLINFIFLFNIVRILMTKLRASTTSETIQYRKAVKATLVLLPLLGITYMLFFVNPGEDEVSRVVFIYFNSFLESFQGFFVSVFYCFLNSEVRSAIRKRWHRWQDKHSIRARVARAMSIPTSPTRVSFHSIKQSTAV
The test is described as follows: IP1 accumulation (IP-one Gq) in Cos7 cells transfected with hCRF1α, agonist stimulation. It is filed as cell-based. The text has this:
(§1) Plasmids containing hCRF1α and hCRF2α (GenBank accession numbers AY457172 and AY449734) were obtained from the cDNA Resource Centre (Bloomsburg University) and are referred to as CRF1 and CRF2 in this manuscript. Hemagglutinin (HA) epitope‐tagged human Calcitonin (CT) receptor (CT(a) splice variant) and myc‐tagged human RAMP1 were used as described previously. ^27 HA‐tagged human calcitonin receptor‐like receptor (CLR), N‐terminal FLAG‐tagged human RAMP3 and N‐terminal myc‐tagged human RAMP3 were a gift from Professor David Poyner (Aston University) and Professor Patrick Sexton (Monash University), respectively. […]
(§2) Cos7, HEK‐293S, and HEK‐293T cells were cultured as described previously. ^28 , ^29 Cos7 cells were originally supplied by the ATCC to Associate Professor Nigel Birch (University of Auckland). […] For transfection, cells were counted (Countess CounterTM; Life Technologies) and plated at a density of 20 000 cells per well in 96‐well plates. […]
The IP‐one Gq assay kit (Cisbio) was used to quantify accumulated myo‐inositol‐1‐phosphate (IP1), a by‐product of IP3 produced after receptor‐mediated Gαq activation in Cos7 and HEK‐293S cells. […] Fifteen microliters of sample was then transferred to a 384‐well optiplate and read by an Envision plate reader (PerkinElmer). IP1 concentrations were calculated from a standard curve generated in duplicate. […]

Test [2] addresses T1, CRF1 receptor (hCRF1α). The test is described as follows: ERK1/2 phosphorylation (AlphaLISA Surefire Ultra) in Cos7 cells transfected with hCRF1α. It is filed as cell-based.
Excerpt: as §1, with “respectively. N‐terminal FLAG‐tagged human RAMP2 was used as described previously. ^28 All receptors and RAMPs were cloned in pcDNA3.0 or pcDNA3.1 plasmid vectors.” for “respectively.”
as §2
The AlphaLISA Surefire Ultra extracellular signal‐regulated kinase 1/2 (ERK1/2) phosphorylation (pERK1/2) assay kit (PerkinElmer Life and Analytical Sciences) was used to measure pERK1/2 in cell lysates after agonist stimulation. […] Samples were read using an Envision plate reader (PerkinElmer). […]
A general note: In Alpha technology, singlet oxygen from a donor bead excites a nearby acceptor bead.

From publication PMC7290078, “Agonist bias and agonist‐dependent antagonism at corticotrophin releasing factor receptors” (Pharmacology Research & Perspectives, 2020) come the findings set out here.

No end group written: not given here.

Regarding “DNPSLSIDLTFHLLRTLLELARTQSQRERAEQNRIIFDSV-NH2 [UCN1]”, the EC50 on CRF1 receptor (hCRF1α) [1] (IP1, hCRF1α, Cos7, 90 min at 37°C, 50 mmol/L LiCl, 1 pmol/L to 10 µmol/L agonist, mean ± SEM, n = 5) is 7.76 nM; at CRF1 receptor (hCRF1α) [2] (pERK1/2, hCRF1α, Cos7, 7 min at 37°C, 1 pmol/L to 1 µmol/L agonist, mean ± SEM, n = 5), 22.9 nM.

On to “IVLSLDVPIGLLQILLEQARARAAREQATTNARILARVGHC-NH2 (C-terminus assumed) [UCN2]”, for which, at CRF1 receptor (hCRF1α) [1] (CRF1 receptor), the “concentration‐dependent increase in IP1 accumulation” value is “not UCN2 and UCN3 exhibited a concentration‐dependent increase”. The “concentration‐dependent increase in pERK1/2” value on CRF1 receptor (hCRF1α) [2] (CRF1 receptor) was “not UCN2 and UCN3 exhibited a concentration‐dependent increase”.

For orientation: EC50 means the midpoint of the concentration-response curve.
